ChEMBL document CHEMBL5126496, “A novel compound active against SARS-CoV-2 targeting uridylate-specific endoribonuclease (NendoU/NSP15): in silico and in vitro investigations” (RSC Med Chem, 2021)

Assays:
SARS-CoV-2 [1] = experiment: Antiviral activity against SARS-CoV-2 MT020880 infected in African green monkey Vero cells assessed as inhibition of viral entry preincubated for 1 hr at 10 uM; assay type: functional
SARS-CoV-2 [2] = experiment: Antiviral activity against SARS-CoV-2 MT020880 infected in African green monkey Vero cells measured after 48 hrs by spread assay; assay type: functional, organism-based, Severe acute respiratory syndrome coronavirus 2
Vero = experiment: Cytotoxicity against African green monkey Vero cells at 50 uM; assay type: toxicity, cell-based; details: chlorocebus sabaeus
SARS-CoV-2 [3] = experiment: Antiviral activity against SARS-CoV-2 MT020880 infected in African green monkey Vero cells assessed as inhibition of viral entry preincubated for 1 hr; assay type: functional, organism-based, Severe acute respiratory syndrome coronavirus 2
[4] = Severe acute respiratory syndrome coronavirus 2, MT020880, Vero

Compound | inhibition (SARS-CoV-2 [1]; Severe acute respiratory syndrome coronavirus 2) [%] | IC50 (SARS-CoV-2 [2]; vero) [µM] | Activity (Vero) | IC50 (SARS-CoV-2 [3]; vero) [µM] | IC50 (SARS-CoV-2 [2]; Severe acute respiratory syndrome coronavirus 2, MT020880, Vero, 48 h) [µM] | inhibition at 10 µM (SARS-CoV-2 [1]; [4]) [%] | IC50 (SARS-CoV-2 [3]; [4]) [µM]
IVERMECTIN [listing 1 of 2 here] | 90 |  |  |  |  |  | 
IVERMECTIN [listing 2 of 2 here] |  | 5.53 | Toxic | 4.97 |  |  | 
CC(C)(C)c1ccc(CN2CCN(C[C@H](O)[C@@H](N)Cc3ccccc3)CC2)cc1 |  |  | Non-Toxic |  | 8.46 | 90 | 7.28
